# Reference: US11123330B2, “Methods and compositions for inhibiting mutant EGFR signaling” (The Governing Council of the University of Toronto, priority 2017, dated 2021)
# Entries after “also recorded” stand apart in the source; their conditions may differ.
# Columns and labels:
# ALK = biological target: T1, ALK (Homo sapiens, UniProt Q9UM73); assay: MaMTH-DS assay, ALK bait with Shc1 prey; type: cell-based
# T1 construct: expressed in transfected cells
# AXL = biological target: T2, AXL (Homo sapiens, UniProt P30530); assay: MaMTH-DS assay, AXL bait with Shc1 prey; type: cell-based
# T2 construct: expressed in transfected cells
# T2 sequence (P30530 26-894): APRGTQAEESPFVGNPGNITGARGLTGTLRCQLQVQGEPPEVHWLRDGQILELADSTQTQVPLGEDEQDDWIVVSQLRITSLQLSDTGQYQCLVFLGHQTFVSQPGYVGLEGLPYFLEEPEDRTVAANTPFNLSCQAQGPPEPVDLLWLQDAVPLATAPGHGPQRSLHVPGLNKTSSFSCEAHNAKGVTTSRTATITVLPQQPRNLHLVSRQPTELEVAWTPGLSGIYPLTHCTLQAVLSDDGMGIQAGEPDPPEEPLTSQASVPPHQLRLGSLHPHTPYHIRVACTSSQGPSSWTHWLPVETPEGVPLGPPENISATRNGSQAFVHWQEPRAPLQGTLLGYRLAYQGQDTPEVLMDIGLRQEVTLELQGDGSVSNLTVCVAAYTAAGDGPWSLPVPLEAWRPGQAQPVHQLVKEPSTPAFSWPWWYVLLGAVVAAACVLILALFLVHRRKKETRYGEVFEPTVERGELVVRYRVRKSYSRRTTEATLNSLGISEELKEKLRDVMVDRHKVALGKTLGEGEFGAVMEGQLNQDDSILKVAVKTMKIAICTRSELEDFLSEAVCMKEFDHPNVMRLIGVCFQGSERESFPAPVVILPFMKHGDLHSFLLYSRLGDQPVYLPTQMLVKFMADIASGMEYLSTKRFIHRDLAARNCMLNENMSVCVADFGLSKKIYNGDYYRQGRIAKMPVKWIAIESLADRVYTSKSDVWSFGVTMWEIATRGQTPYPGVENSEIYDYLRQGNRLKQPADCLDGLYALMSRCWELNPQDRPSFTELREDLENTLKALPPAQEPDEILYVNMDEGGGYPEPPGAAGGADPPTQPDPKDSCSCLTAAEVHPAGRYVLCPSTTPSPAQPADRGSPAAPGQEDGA
# Source text: To test MaMTH-DS sensitivity and its potential suitability for use in RTK drug screening, we selected several RTKs whose dysfunction is associated with cancer, and prepared stable MaMTH-DS ‘baits’ in our reporter cell lines. We then performed MaMTH-DS assays in the presence of transfected Shcl functional adapter protein ‘prey’ and small-molecule TKIs, including both control molecules and compounds known to specifically target the function of the corresponding RTKs. First, we examined the response of the RTK MET to the TKIs Crizotinib and Erlotinib using MaMTH-DS.
# MaMTH assays. Cells stably expressing bait of interest (EGFR, MET, FGFR4, ALK, AXL) were seeded into 96-well TC-treated plates and grown at 37° C./5% CO2 overnight in DMEM/10% FBS/1% PS to ˜50-60% confluency. Cells were transfected with 50 ng/well of Nub-Shc1 ‘prey’ protein by calcium phosphate precipitation. Five hours after transfection, media was aspirated out and cells were treated with 100 uL of fresh media containing specific compound and 0.5 ug/ml of tetracyline to induce bait expression. After 24 hours, luciferase activity was measured by chemoluminescence.
# FGFR4 = biological target: T3, FGFR4 (Homo sapiens, UniProt P22455); assay: MaMTH-DS assay, FGFR4 bait with Shc1 prey; type: cell-based
# T3 construct: expressed in transfected cells
# MET = biological target: T4, MET (Homo sapiens, UniProt P08581); assay: MaMTH-DS assay, MET bait with Shc1 prey; type: cell-based
# T4 construct: expressed in transfected cells
# EGFR-WT = biological target: T5, EGFR-WT (Homo sapiens, UniProt P00533); assay: MaMTH assay, EGFR-WT bait with Shc1 prey; type: cell-based
# T5 construct: change the phosphorylation status of full-length EGFR proteins in the context of living cells; expressed in transfected cells
# EGFR ex19del/T790M/C797S = EGFR ex19del/T790M/C797S (Homo sapiens, UniProt P00533, C797S/DEL746-750/T790M); assay: In vitro kinase assay, EGFR ex19del/T790M/C797S kinase domain; type: biochemical
# wild-type EGFR = biological target: T6, wild-type EGFR (Homo sapiens, UniProt P00533); assay: In vitro kinase assay, EGFR WT kinase domain; type: biochemical; details: up to 10 micromolar
# T6 construct: recombinant proteins of the kinase domain of wild-type EGFR; purchased Reaction Biology Corporation
# EGFR-L858R-T790M-C797S = biological target: T7, EGFR-L858R-T790M-C797S (Homo sapiens, UniProt P00533, C797S/L858R/T790M); assay: MaMTH / MaMTH-DS assay, EGFR-L858R-T790M-C797S bait with Shc1 prey; type: cell-based; details: retest in triplicate, MaMTH signal remaining (low = inhibition)
# T7 construct: change the phosphorylation status of full-length EGFR proteins in the context of living cells; expressed in transfected cells
# T1 sequence (Q9UM73 19-1620): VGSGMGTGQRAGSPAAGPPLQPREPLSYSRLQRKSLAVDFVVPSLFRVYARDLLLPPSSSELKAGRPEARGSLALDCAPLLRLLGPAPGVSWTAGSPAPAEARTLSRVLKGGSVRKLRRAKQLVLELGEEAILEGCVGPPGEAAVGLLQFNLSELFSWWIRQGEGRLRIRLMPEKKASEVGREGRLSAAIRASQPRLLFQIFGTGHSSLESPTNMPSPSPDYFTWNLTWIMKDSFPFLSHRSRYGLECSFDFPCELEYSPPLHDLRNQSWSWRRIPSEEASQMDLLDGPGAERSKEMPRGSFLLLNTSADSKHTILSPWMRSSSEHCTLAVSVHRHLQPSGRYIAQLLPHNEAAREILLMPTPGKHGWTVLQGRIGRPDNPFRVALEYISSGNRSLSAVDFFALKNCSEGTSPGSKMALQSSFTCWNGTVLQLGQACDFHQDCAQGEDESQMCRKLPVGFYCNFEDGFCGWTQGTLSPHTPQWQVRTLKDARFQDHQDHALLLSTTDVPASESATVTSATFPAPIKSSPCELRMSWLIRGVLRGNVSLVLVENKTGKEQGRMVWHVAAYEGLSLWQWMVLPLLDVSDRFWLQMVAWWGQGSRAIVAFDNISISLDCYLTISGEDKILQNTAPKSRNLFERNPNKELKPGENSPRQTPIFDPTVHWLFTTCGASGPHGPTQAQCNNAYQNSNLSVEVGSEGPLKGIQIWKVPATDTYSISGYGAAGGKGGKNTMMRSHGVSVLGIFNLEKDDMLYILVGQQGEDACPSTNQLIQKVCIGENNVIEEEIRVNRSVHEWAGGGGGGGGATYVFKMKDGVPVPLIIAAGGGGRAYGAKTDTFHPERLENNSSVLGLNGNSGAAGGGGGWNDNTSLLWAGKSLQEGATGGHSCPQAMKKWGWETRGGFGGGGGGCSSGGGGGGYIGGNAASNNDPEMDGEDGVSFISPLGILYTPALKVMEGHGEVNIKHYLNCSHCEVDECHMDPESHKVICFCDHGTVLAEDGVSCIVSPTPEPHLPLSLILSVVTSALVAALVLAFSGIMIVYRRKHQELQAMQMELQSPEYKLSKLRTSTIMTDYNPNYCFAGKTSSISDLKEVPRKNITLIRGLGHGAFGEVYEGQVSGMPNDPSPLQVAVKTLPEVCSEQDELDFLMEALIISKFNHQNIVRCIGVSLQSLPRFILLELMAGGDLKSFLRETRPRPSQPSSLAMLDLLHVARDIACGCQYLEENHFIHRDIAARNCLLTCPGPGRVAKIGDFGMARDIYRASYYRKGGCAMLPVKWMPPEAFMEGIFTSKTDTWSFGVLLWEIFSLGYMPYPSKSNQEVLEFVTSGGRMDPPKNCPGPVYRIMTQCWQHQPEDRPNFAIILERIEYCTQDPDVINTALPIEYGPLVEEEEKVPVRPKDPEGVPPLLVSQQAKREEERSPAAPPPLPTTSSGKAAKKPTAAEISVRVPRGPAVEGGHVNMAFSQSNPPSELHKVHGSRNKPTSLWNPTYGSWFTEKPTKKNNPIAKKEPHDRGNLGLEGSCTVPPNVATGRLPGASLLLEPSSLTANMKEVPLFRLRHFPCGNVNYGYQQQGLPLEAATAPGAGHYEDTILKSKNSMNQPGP
# T4 sequence (P08581 308-1390 limits assumed): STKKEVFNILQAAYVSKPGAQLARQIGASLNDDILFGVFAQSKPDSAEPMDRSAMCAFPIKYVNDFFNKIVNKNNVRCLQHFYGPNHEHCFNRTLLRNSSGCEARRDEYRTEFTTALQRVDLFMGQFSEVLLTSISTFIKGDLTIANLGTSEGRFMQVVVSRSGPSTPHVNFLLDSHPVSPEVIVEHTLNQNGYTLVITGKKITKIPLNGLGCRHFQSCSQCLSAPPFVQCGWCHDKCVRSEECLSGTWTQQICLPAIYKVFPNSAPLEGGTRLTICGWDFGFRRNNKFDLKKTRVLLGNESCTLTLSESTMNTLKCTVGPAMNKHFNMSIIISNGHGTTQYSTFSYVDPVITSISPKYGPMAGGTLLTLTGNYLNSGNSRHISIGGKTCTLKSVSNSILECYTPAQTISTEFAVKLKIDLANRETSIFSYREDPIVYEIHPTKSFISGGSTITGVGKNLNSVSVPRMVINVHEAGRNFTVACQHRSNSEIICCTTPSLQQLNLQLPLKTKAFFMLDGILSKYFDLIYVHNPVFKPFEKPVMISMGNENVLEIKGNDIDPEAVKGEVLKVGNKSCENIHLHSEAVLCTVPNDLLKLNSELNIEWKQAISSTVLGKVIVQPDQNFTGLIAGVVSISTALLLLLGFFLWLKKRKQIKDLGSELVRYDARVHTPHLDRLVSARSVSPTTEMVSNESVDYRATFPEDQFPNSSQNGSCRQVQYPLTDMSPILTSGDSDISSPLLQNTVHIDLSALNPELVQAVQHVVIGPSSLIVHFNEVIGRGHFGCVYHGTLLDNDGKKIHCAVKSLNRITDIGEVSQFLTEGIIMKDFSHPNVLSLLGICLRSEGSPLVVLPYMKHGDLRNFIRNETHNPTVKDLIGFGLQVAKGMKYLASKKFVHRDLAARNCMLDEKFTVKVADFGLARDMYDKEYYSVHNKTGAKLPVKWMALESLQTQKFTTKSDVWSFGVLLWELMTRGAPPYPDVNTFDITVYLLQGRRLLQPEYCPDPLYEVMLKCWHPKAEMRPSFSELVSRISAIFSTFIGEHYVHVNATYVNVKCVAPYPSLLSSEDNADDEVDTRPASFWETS
# T4 sequence (P08581 25-307 partner limits assumed): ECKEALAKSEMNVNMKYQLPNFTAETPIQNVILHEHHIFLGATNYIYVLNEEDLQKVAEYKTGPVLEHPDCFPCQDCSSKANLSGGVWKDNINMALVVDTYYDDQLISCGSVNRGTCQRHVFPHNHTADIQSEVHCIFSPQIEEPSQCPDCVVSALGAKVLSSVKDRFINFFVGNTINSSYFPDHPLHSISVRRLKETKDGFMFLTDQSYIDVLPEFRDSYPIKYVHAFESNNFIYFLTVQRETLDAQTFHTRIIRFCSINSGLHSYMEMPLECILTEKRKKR
# T3 sequence (P22455 22-802): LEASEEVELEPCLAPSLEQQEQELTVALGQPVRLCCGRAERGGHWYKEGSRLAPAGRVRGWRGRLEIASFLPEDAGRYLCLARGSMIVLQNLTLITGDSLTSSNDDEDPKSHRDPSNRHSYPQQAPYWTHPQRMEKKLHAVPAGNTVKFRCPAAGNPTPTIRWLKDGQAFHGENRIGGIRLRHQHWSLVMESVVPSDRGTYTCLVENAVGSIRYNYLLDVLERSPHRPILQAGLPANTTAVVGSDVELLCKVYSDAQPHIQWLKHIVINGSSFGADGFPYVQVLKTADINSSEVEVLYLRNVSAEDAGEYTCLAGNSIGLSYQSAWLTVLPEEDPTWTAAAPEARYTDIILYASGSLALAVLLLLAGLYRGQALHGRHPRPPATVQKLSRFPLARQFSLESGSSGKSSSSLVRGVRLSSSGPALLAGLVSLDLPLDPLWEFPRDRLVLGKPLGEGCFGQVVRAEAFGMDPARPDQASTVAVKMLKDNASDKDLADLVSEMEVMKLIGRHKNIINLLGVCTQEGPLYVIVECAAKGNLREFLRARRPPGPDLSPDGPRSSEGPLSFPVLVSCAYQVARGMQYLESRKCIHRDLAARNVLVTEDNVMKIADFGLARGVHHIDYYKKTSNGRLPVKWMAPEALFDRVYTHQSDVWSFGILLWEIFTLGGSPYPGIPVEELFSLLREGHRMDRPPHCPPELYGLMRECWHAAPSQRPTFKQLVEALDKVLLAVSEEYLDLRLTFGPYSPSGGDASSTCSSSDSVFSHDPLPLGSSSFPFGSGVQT
smiles,measurement,setting,value
"CCN(CC)c1ccc2cc(-c3nc4ccccc4o3)c(=O)oc2c1 [Compound 5213777, 3-(1,3-benzoxazol-2-yl)-7-(diethylamino)-2H-chromen-2-one]",MaMTH-DS reporter activity,ALK,not
same,MaMTH-DS reporter activity,AXL,not
same,MaMTH-DS reporter activity,FGFR4,not
same,MaMTH-DS interaction with Shc1,MET,not
same,"interaction / complex formation with Shc1 (MaMTH, words)",EGFR-WT; EGFR WT bait,not
same,Average Percent,"EGFR-WT; EGFR-WT bait, Shc1 prey, retest in triplicate, MaMTH signal remaining (low = inhibition)",105.3%
same,effect on kinase activity,EGFR ex19del/T790M/C797S,no kinase inhibitory activity; also recorded: does not inhibit the kinase activity
same,effect on kinase activity,wild-type EGFR,no kinase inhibitory activity
same,Average Percent,EGFR-L858R-T790M-C797S,27.8%
